According to ChEMBL document CHEMBL1147144, “Novel styrylpyridines as probes for SPECT imaging of amyloid plaques” (J Med Chem, 2007):

System: Lung
Test: Biodistribution in ICR mouse lung at 5 to 10 uCi, iv after 2 mins
Type: ADME, organism-based
Settings: in vivo

| Drug uptake [% ID/g] | Compound |
| --- | --- |
| 14.2 | OCCOc1ncc(/C=C/c2ccc(O)cc2)cc1[125I] |

System: Thyroid gland
Test: Biodistribution in ICR mouse thyroid at 5 to 10 uCi, iv after 1 hr
Type: ADME, organism-based
Settings: in vivo

| Drug uptake [% ID/g] | Compound |
| --- | --- |
| 13 | OCCOc1ncc(/C=C/c2ccc(O)cc2)cc1[125I] |

System: Kidney
Test: Biodistribution in ICR mouse kidney at 5 to 10 uCi, iv after 2 hrs
Type: ADME, organism-based
Settings: in vivo

| Drug uptake [% ID/g] | Compound |
| --- | --- |
| 2.5 | OCCOc1ncc(/C=C/c2ccc(O)cc2)cc1[125I] |

System: Heart
Test: Biodistribution in ICR mouse heart at 5 to 10 uCi, iv after 2 mins
Type: ADME, organism-based
Settings: in vivo

| Drug uptake [% ID/g] | Compound |
| --- | --- |
| 6.66 | OCCOc1ncc(/C=C/c2ccc(O)cc2)cc1[125I] |

System: Heart
Test: Biodistribution in ICR mouse heart at 5 to 10 uCi, iv after 1 hr
Type: ADME, organism-based
Settings: in vivo

| Drug uptake [% ID/g] | Compound |
| --- | --- |
| 0.65 | OCCOc1ncc(/C=C/c2ccc(O)cc2)cc1[125I] |

System: Thyroid gland
Test: Biodistribution in ICR mouse thyroid at 5 to 10 uCi, iv after 2 hrs
Type: ADME, organism-based
Settings: in vivo

| Drug uptake [% ID/g] | Compound |
| --- | --- |
| 16 | OCCOc1ncc(/C=C/c2ccc(O)cc2)cc1[125I] |

System: Spleen
Test: Biodistribution in ICR mouse spleen at 5 to 10 uCi, iv after 2 hrs
Type: ADME, organism-based
Settings: in vivo

| Drug uptake [% ID/g] | Compound |
| --- | --- |
| 0.5 | OCCOc1ncc(/C=C/c2ccc(O)cc2)cc1[125I] |

System: Spleen
Test: Biodistribution in ICR mouse spleen at 5 to 10 uCi, iv after 1 hr
Type: ADME, organism-based
Settings: in vivo

| Drug uptake [% ID/g] | Compound |
| --- | --- |
| 0.5 | OCCOc1ncc(/C=C/c2ccc(O)cc2)cc1[125I] |

System: Liver
Test: Biodistribution in ICR mouse liver at 5 to 10 uCi, iv after 2 mins
Type: ADME, organism-based
Settings: in vivo

| Drug uptake [% ID/g] | Compound |
| --- | --- |
| 18.3 | OCCOc1ncc(/C=C/c2ccc(O)cc2)cc1[125I] |

System: Brain
Test: Biodistribution in ICR mouse brain at 5 to 10 uCi, iv after 30 mins
Type: ADME, organism-based
Settings: in vivo, 0.5 h

| Drug uptake [% ID/g] | Compound |
| --- | --- |
| 0.26 | OCCOc1ncc(/C=C/c2ccc(O)cc2)cc1[125I] |

System: Heart
Test: Biodistribution in ICR mouse heart at 5 to 10 uCi, iv after 2 hrs
Type: ADME, organism-based
Settings: in vivo

| Drug uptake [% ID/g] | Compound |
| --- | --- |
| 0.51 | OCCOc1ncc(/C=C/c2ccc(O)cc2)cc1[125I] |

System: Blood
Test: Biodistribution in ICR mouse blood at 5 to 10 uCi, iv after 2 mins
Type: ADME, organism-based
Settings: in vivo

| Drug uptake [% ID/g] | Compound |
| --- | --- |
| 10.1 | OCCOc1ncc(/C=C/c2ccc(O)cc2)cc1[125I] |

System: Liver
Test: Biodistribution in ICR mouse liver at 5 to 10 uCi, iv after 30 mins
Type: ADME, organism-based
Settings: in vivo, 0.5 h

| Drug uptake [% ID/g] | Compound |
| --- | --- |
| 5.15 | OCCOc1ncc(/C=C/c2ccc(O)cc2)cc1[125I] |

System: Spleen
Test: Biodistribution in ICR mouse spleen at 5 to 10 uCi, iv after 30 mins
Type: ADME, organism-based
Settings: in vivo, 0.5 h

| Drug uptake [% ID/g] | Compound |
| --- | --- |
| 1.28 | OCCOc1ncc(/C=C/c2ccc(O)cc2)cc1[125I] |

System: Lung
Test: Biodistribution in ICR mouse lung at 5 to 10 uCi, iv after 30 mins
Type: ADME, organism-based
Settings: in vivo, 0.5 h

| Drug uptake [% ID/g] | Compound |
| --- | --- |
| 3.1 | OCCOc1ncc(/C=C/c2ccc(O)cc2)cc1[125I] |

System: Lung
Test: Biodistribution in ICR mouse lung at 5 to 10 uCi, iv after 2 hrs
Type: ADME, organism-based
Settings: in vivo

| Drug uptake [% ID/g] | Compound |
| --- | --- |
| 1.02 | OCCOc1ncc(/C=C/c2ccc(O)cc2)cc1[125I] |

System: Heart
Test: Biodistribution in ICR mouse heart at 5 to 10 uCi, iv after 30 mins
Type: ADME, organism-based
Settings: in vivo, 0.5 h

| Drug uptake [% ID/g] | Compound |
| --- | --- |
| 1.35 | OCCOc1ncc(/C=C/c2ccc(O)cc2)cc1[125I] |

System: Zone of skin
Test: Biodistribution in ICR mouse skin at 5 to 10 uCi, iv after 1 hr
Type: ADME, organism-based
Settings: in vivo

| Drug uptake [% ID/g] | Compound |
| --- | --- |
| 0.62 | OCCOc1ncc(/C=C/c2ccc(O)cc2)cc1[125I] |

System: Muscle tissue
Test: Biodistribution in ICR mouse muscle at 5 to 10 uCi, iv after 1 hr
Type: ADME, organism-based
Settings: in vivo

| Drug uptake [% ID/g] | Compound |
| --- | --- |
| 0.21 | OCCOc1ncc(/C=C/c2ccc(O)cc2)cc1[125I] |

System: Kidney
Test: Biodistribution in ICR mouse kidney at 5 to 10 uCi, iv after 2 mins
Type: ADME, organism-based
Settings: in vivo

| Drug uptake [% ID/g] | Compound |
| --- | --- |
| 20.4 | OCCOc1ncc(/C=C/c2ccc(O)cc2)cc1[125I] |

System: not listed separately
Test: Partition coefficient, log P at pH 7.4
Type: physicochemical
Settings: octanol/water

| logD | Compound |
| --- | --- |
| 2.2 | OCCOc1ncc(/C=C/c2ccc(O)cc2)cc1[125I] |

System: Thyroid gland
Test: Biodistribution in ICR mouse thyroid at 5 to 10 uCi, iv after 30 mins
Type: ADME, organism-based
Settings: in vivo, 0.5 h

| Drug uptake [% ID/g] | Compound |
| --- | --- |
| 3.99 | OCCOc1ncc(/C=C/c2ccc(O)cc2)cc1[125I] |

System: Brain
Test: Biodistribution in ICR mouse brain at 5 to 10 uCi, iv after 2 mins
Type: ADME, organism-based
Settings: in vivo

| Drug uptake [% ID/g] | Compound |
| --- | --- |
| 0.99 | OCCOc1ncc(/C=C/c2ccc(O)cc2)cc1[125I] |

System: Zone of skin
Test: Biodistribution in ICR mouse skin at 5 to 10 uCi, iv after 2 hrs
Type: ADME, organism-based
Settings: in vivo

| Drug uptake [% ID/g] | Compound |
| --- | --- |
| 0.37 | OCCOc1ncc(/C=C/c2ccc(O)cc2)cc1[125I] |

System: Muscle tissue
Test: Biodistribution in ICR mouse muscle at 5 to 10 uCi, iv after 2 hrs
Type: ADME, organism-based
Settings: in vivo

| Drug uptake [% ID/g] | Compound |
| --- | --- |
| 0.12 | OCCOc1ncc(/C=C/c2ccc(O)cc2)cc1[125I] |

System: Brain
Test: Biodistribution in ICR mouse brain at 5 to 10 uCi, iv after 1 hr
Type: ADME, organism-based
Settings: in vivo

| Drug uptake [% ID/g] | Compound |
| --- | --- |
| 0.09 | OCCOc1ncc(/C=C/c2ccc(O)cc2)cc1[125I] |

System: Thyroid gland
Test: Biodistribution in ICR mouse thyroid at 5 to 10 uCi, iv after 2 mins
Type: ADME, organism-based
Settings: in vivo

| Drug uptake [% ID/g] | Compound |
| --- | --- |
| 4.38 | OCCOc1ncc(/C=C/c2ccc(O)cc2)cc1[125I] |

System: Spleen
Test: Biodistribution in ICR mouse spleen at 5 to 10 uCi, iv after 2 mins
Type: ADME, organism-based
Settings: in vivo

| Drug uptake [% ID/g] | Compound |
| --- | --- |
| 4.2 | OCCOc1ncc(/C=C/c2ccc(O)cc2)cc1[125I] |

System: Blood
Test: Biodistribution in ICR mouse blood at 5 to 10 uCi, iv after 30 mins
Type: ADME, organism-based
Settings: in vivo, 0.5 h

| Drug uptake [% ID/g] | Compound |
| --- | --- |
| 3.92 | OCCOc1ncc(/C=C/c2ccc(O)cc2)cc1[125I] |

System: Blood
Test: Biodistribution in ICR mouse blood at 5 to 10 uCi, iv after 1 hr
Type: ADME, organism-based
Settings: in vivo

| Drug uptake [% ID/g] | Compound |
| --- | --- |
| 1.29 | OCCOc1ncc(/C=C/c2ccc(O)cc2)cc1[125I] |

System: Liver
Test: Biodistribution in ICR mouse liver at 5 to 10 uCi, iv after 1 hr
Type: ADME, organism-based
Settings: in vivo

| Drug uptake [% ID/g] | Compound |
| --- | --- |
| 2.38 | OCCOc1ncc(/C=C/c2ccc(O)cc2)cc1[125I] |

System: Zone of skin
Test: Biodistribution in ICR mouse skin at 5 to 10 uCi, iv after 2 mins
Type: ADME, organism-based
Settings: in vivo

| Drug uptake [% ID/g] | Compound |
| --- | --- |
| 0.64 | OCCOc1ncc(/C=C/c2ccc(O)cc2)cc1[125I] |

System: Zone of skin
Test: Biodistribution in ICR mouse skin at 5 to 10 uCi, iv after 30 mins
Type: ADME, organism-based
Settings: in vivo, 0.5 h

| Drug uptake [% ID/g] | Compound |
| --- | --- |
| 1.36 | OCCOc1ncc(/C=C/c2ccc(O)cc2)cc1[125I] |

System: Brain
Test: Biodistribution in ICR mouse brain at 5 to 10 uCi, iv after 2 hrs
Type: ADME, organism-based
Settings: in vivo

| Drug uptake [% ID/g] | Compound |
| --- | --- |
| 0.06 | OCCOc1ncc(/C=C/c2ccc(O)cc2)cc1[125I] |

System: Kidney
Test: Biodistribution in ICR mouse kidney at 5 to 10 uCi, iv after 1 hr
Type: ADME, organism-based
Settings: in vivo

| Drug uptake [% ID/g] | Compound |
| --- | --- |
| 2.94 | OCCOc1ncc(/C=C/c2ccc(O)cc2)cc1[125I] |

System: Muscle tissue
Test: Biodistribution in ICR mouse muscle at 5 to 10 uCi, iv after 2 mins
Type: ADME, organism-based
Settings: in vivo

| Drug uptake [% ID/g] | Compound |
| --- | --- |
| 1.01 | OCCOc1ncc(/C=C/c2ccc(O)cc2)cc1[125I] |

System: Blood
Test: Biodistribution in ICR mouse blood at 5 to 10 uCi, iv after 2 hrs
Type: ADME, organism-based
Settings: in vivo

| Drug uptake [% ID/g] | Compound |
| --- | --- |
| 1.56 | OCCOc1ncc(/C=C/c2ccc(O)cc2)cc1[125I] |

System: Kidney
Test: Biodistribution in ICR mouse kidney at 5 to 10 uCi, iv after 30 mins
Type: ADME, organism-based
Settings: in vivo, 0.5 h

| Drug uptake [% ID/g] | Compound |
| --- | --- |
| 10 | OCCOc1ncc(/C=C/c2ccc(O)cc2)cc1[125I] |

System: Liver
Test: Biodistribution in ICR mouse liver at 5 to 10 uCi, iv after 2 hrs
Type: ADME, organism-based
Settings: in vivo

| Drug uptake [% ID/g] | Compound |
| --- | --- |
| 2.63 | OCCOc1ncc(/C=C/c2ccc(O)cc2)cc1[125I] |

System: Muscle tissue
Test: Biodistribution in ICR mouse muscle at 5 to 10 uCi, iv after 30 mins
Type: ADME, organism-based
Settings: in vivo, 0.5 h

| Drug uptake [% ID/g] | Compound |
| --- | --- |
| 0.59 | OCCOc1ncc(/C=C/c2ccc(O)cc2)cc1[125I] |

System: Lung
Test: Biodistribution in ICR mouse lung at 5 to 10 uCi, iv after 1 hr
Type: ADME, organism-based
Settings: in vivo

| Drug uptake [% ID/g] | Compound |
| --- | --- |
| 1.34 | OCCOc1ncc(/C=C/c2ccc(O)cc2)cc1[125I] |
